We go through 10 compounds from ChEMBL document CHEMBL1255178, “4-methylpteridinones as orally active and selective PI3K/mTOR dual inhibitors” (Bioorg Med Chem Lett, 2010).

Experiment [1] has as its target Serine/threonine-protein kinase mTOR (Homo sapiens, UniProt P42345).
Experiment [2] can be described thus: Antitumor activity against human U87 cells xenografted in mouse at 3 mg/kg, po after 10 days. The format is functional, U-87MG ATCC. On the technique in general: In xenograft studies the graft and the host belong to different species.
Experiment [3] can be described thus: Antitumor activity against human U87 cells xenografted in mouse at 10 mg/kg, po after 10 days. The format is functional, U-87MG ATCC.
Experiment [4] in a line: Antitumor activity against human U87 cells xenografted in mouse at 20 mg/kg, po after 10 days. The format is functional, U-87MG ATCC.

SMILES strings stand for the structures.

Consider `Cc1ccc(-c2nc3c(C)nc(N)nc3n([C@H]3CC[C@H](O)CC3)c2=O)cn1`, for which, in experiment [1], the Ki is 0.85 nM. In other words, the sub-nanomolar range.
In experiment [1], `COc1ccc(-c2cc3c(C)nc(N)nc3n(C(C)C)c2=O)cn1` showed a Ki of 5 nM.
Same read-out and setting: under `Cc1nc(N)nc2c1nc(-c1cc[nH]n1)c(=O)n2C1CCOCC1` stands 0.8 nM; under `Cc1ccc(-c2nc3c(C)nc(N)nc3n([C@H]3CC[C@H](OCCO)CC3)c2=O)cn1`, 5.11 nM; under `Cc1ccc(-c2nc3c(C)nc(N)nc3n(C3CCOCC3)c2=O)cn1`, 5 nM.
Turning to `COc1ncc(-c2nc3c(C)nc(N)nc3n(C(C)C)c2=O)cn1`, in experiment [1], the Ki turned out to be 18 nM.
Still for that read-out and setting: the value for `Cc1nc(N)nc2c1nc(-c1cnn[nH]1)c(=O)n2C(C)C` was 113 nM; that for `COc1ccc(-c2cc3c(OC)nc(N)nc3n(C(C)C)c2=O)cn1` was over 4000 nM.
Consider `COc1ccc(-c2nc3c(C)nc(N)nc3n([C@H]3CC[C@H](O)CC3)c2=O)cn1`, for which the results for the Activity in experiment [2], in experiment [3] and in experiment [4] were 11%, 58% and 75%, respectively. The Ki in experiment [1] was found to be 6.8 nM.
As to `Cc1nc(N)nc2c1nc(-c1ccn[nH]1)c(=O)n2C(C)C`, the inhibition constant Ki in experiment [1] is 6 nM.

In general, Ki refers to the dissociation constant of the complex between target and ligand, obtained from inhibition or displacement. Lower therefore signals higher affinity.
